Results on one substance are retold here after US20110166206A1, “UBIQUILIN REGULATION OF PRESENILIN ENDOPROTEOLYSIS, AND SUPPRESSION OF POLYGLUTAMINE-INDUCED TOXICITY IN CELLS” (UNIVERSITY OF MARYLAND BIOTECHNOLOGY INSTITUTE, priority 2005, published 2011).

Data set [1] concerns GFP-HttQ74-3 and GFP-HttQ28-2 HeLa cell lines. As to the kind of experiment: Ubiquilin-1 transfection of stable GFP-HttPolyQ HeLa cell lines, serum withdrawal-induced cell death and aggregates. The class given is cell-based. An excerpt: FIG. 11. […] The 28Q-2 and 74Q-3 were used in most of our studies. The asterisk corresponds to a non-specific band that is detected by the GFP antibody. • B. Representative fluorescent images of GFP-HttPolyQ(28)-2 and GFP-HttPolyQ(74)-3 stable cell lines. Note that GFP fluorescence is located in both the cytoplasm and the nucleus, but that compact foci are only seen in the GFP-HttPolyQ(74)-3 cells. • C. Cells expressing expanded polyglutamine proteins are more sensitive to H2O2. The GFP-HftPolyQ(28)-2 and GFP-HttPolyQ(74)-3 stable cell lines were exposed to 200 μM concentration of H2O2 and after 5 hr, the cells were stained with both Hoechest 33342 and PI. The cells stained by PI represent the dead cells whereas all the nuclei are identified by Hoechst 33342 staining. • D. Graph showing percentage of cell death after the cells were exposed to different concentrations of H2O2 for 5 hr. Percentages of cell death calculated by determining the ratio of PI-positively stained cells to that of Hoechst-stained cells. There was a significant difference in cell death upon exposure of GFP-HttPolyQ(28)-2 and GFP-HttPolyQ(74)-3 to 100 μM, 150 μM, or 200 μM of H2O2 (p<0.001). • E. Representative images showing that overexpression of ubiquilin-1 protects GFP-HttPolyQ(74)-3 expressing cells against serum withdrawal-induced cell death. Cells stably expressing GFP-HttPolyQ(28) or GFP-HttPolyQ(74) were transiently transfected with or without (mock transfection) plasmids encoding ubiquilin-1 by the calcium phosphate coprecipitation method. […] Cell death was quantified as described in D above. • H. Representative images showing that ubiquilin-1 overexpression protects GFP-HttPolyQ(74)-3 expressing cells against serum withdrawal-induced cell death, in a dose-dependent manner. […] After 5 hours of serum withdrawal and 30 hours following the transfection, the amount of cell death was analyzed by staining cells with both PI and Hoechst 33342. • I. Graph showing quantification of cell death in the experiments described in H. • J. Immunoblot showing overexpression of increasing amounts of ubiquilin-1 cDNA in the GFP-HttPolyQ(74)-3 cell line reduces GFP-aggregates trapped in the stacking gel after SDS-PAGE. […] Bottom panel: Quantification of the spot intensity determined in three independent experiments.
HeLa cells were grown in DME supplemented with 10% FBS. […] Stable cell lines were identified by GFP-fluorescence.
Cell death was monitored either through examination of the nuclear morphology observed after Hoechst 33342 (1 μg/ml) staining, or through detecting the membrane selective permeability following 3 μM of propidium iodide (PI) staining. […]

In the next data set the test system is PS1 and PS2 NTF and CTF. The data set can be described thus: MG132 treatment of UBQLN-transfected PS1 and PS2 stable cell lines, fragment immunoblot. The class given is cell-based. The note with it: UBQLN1 transfected vs untransfected, MG132. The procedure: FIG. 3. […] (A) PS1 cells lines that were either not induced (lanes 1 and 3) or induced with PonA (lanes 2 and 4) and either left untransfected (lanes 1 and 2) or transfected with UBQLN1 expression plasmids (lanes 3 and 4) were treated for 7 h with MG132 after which protein lysates were collected and analyzed by immunoblotting. […] For clarification, if UBQLN did increase the turnover rate then by blocking degradation, turnover would be stopped and PS fragment levels would be similar, or increase, relative to that of untransfected cells. […] Densitometric analysis was used to quantify the extent of reduction. Each experiment was repeated more than three times and similar trends were observed.
(B) Same experiment and results as described in (A) except that PS2 inducible cell lines were used to examine PS2 NTF and CTF levels. […] UBQLN exerts greater effects on PS2 probably because it interacts more strongly with PS2, see [43].
HeLa and HEK293 cells were grown in DMEM supplemented with 10% FBS. PS1 and S2 inducible cell lines were generated by transfection of the pERV-expressing HEK293 cell line (Stratgene, IaIolla, Calif.) with FL human PS2 cDNA under the control of ponasteroneA (PonA)-inducible cassette in plasmid pEGSH (Stratagene). Stable integration of the pEGSH plasmid was achieved by selection for hygromycin resistance. […]
For orientation: A western blot detects proteins with antibodies after separation by electrophoresis.

As for “UBQLN1: PS-interacting protein ubiquilin-1, overexpressed in cells from a cDNA expression plasmid”, the “spot intensity of GFP-aggregates, filter retardation assay” value in data set [1] (GFP-HttPolyQ(74)-3 cells, 2, 3 and 6 μg vs mock or 1 μg) is recorded as “significantly lower”. For the same substance, in data set [1] (GFP-HttQ28-2 cell line), the “cell death, ubiquilin-1-transfected vs mock-transfected” value is listed as “no significant difference in cell death”. Besides, the “protection against cell death with increasing amounts of plasmid” value in data set [1] (GFP-HttQ74-3 cell line) was “dose-dependent protection against cell death”. For the same substance, in data set [1] (GFP-HttQ74-3 cell line, 24 hours after transfection and serum deprivation, vs untransfected), the “reduction in cell death” value is “approximately 50%”. In the data set on PS1 and PS2 NTF and CTF, the “PS1 and PS2 NTF and CTF levels after MG132 treatment” value is given as “remained reduced”.
